This is an account of results in ChEMBL document CHEMBL5223073, “Andrographolide suppresses cisplatin-induced endothelial hyperpermeability through activation of PI3K/Akt and eNOS -derived nitric oxide” (Bioorg Med Chem, 2020).

Active and inactive are the calls of the source. The rule behind the calls is not given here.

Assay [1] deals with HUVEC. Put plainly: Inhibition of cisplatin-induced ICAM-1 mRNA expression in HUVEC cells preincubated for 30 mins followed by cisplatin addition and measured after 24 hrs by RT-PCR analysis. It counts as functional, cell-based. The following applies: Homo sapiens, dose 10-30 µM, time 24.5 hrs.
In assay [2] the target is T1, Nitric oxide synthase 3 (Homo sapiens) (UniProt P29474).
T1 sequence (whole entry): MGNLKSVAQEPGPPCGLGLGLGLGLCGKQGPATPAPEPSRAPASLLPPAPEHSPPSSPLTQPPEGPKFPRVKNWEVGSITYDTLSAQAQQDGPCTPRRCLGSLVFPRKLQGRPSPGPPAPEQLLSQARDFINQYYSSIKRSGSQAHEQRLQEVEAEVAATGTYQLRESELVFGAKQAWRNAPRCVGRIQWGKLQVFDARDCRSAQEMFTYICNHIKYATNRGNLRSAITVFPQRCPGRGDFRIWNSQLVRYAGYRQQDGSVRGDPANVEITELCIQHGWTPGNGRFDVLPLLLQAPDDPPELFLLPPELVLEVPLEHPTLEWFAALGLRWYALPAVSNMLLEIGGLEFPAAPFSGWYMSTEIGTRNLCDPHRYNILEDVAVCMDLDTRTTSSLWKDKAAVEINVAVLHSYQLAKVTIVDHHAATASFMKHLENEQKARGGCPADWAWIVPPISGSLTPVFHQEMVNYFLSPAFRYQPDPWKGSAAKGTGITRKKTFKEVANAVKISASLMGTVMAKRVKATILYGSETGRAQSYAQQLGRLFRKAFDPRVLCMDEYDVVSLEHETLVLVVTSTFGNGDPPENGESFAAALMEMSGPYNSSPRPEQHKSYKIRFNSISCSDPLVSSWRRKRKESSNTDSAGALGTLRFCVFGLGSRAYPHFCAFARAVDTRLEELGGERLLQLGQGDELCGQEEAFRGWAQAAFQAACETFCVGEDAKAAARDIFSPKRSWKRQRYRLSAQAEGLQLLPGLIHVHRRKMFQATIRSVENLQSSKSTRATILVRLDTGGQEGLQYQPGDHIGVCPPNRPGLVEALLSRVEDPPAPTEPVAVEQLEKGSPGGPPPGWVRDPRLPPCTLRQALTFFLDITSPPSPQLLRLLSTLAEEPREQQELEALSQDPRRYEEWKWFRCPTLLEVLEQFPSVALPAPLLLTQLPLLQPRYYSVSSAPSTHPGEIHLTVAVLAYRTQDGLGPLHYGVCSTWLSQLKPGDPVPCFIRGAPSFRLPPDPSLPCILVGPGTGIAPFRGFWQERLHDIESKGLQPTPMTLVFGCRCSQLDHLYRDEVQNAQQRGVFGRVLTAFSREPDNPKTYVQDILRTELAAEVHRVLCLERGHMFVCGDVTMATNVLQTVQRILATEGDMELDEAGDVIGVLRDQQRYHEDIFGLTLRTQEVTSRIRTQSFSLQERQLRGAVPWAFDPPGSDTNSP
Put plainly: Activation of eNOS activity in cisplatin-treated HUVEC cells assessed as increase in eNOS phosphorylation at Ser1177 residue at 30 uM preincubated with eNOS inhibitor, N(G)-nitro-L-arginine methyl ester followed by compound addition measured after 5 to 240 mins by Western blot analysis. It counts as cell-based. The following applies: time 5-240 min.

In assay [3] the target is T1, Nitric oxide synthase 3 (Homo sapiens). The assay can be described thus: Activation of eNOS activity in cisplatin-treated HUVEC cells assessed as increase in eNOS phosphorylation at Ser1177 residue at 30 uM preincubated with PI3K inhibitor, wortmannin followed by compound addition measured after 5 to 240 mins by Western blot analysis. It counts as cell-based. Particulars: time 5-240 min. A general note: A western blot detects proteins with antibodies after separation by electrophoresis.

In assay [4] the target is T2, NF-kappa-B inhibitor alpha (Homo sapiens) (UniProt P25963).
T2 sequence (whole entry): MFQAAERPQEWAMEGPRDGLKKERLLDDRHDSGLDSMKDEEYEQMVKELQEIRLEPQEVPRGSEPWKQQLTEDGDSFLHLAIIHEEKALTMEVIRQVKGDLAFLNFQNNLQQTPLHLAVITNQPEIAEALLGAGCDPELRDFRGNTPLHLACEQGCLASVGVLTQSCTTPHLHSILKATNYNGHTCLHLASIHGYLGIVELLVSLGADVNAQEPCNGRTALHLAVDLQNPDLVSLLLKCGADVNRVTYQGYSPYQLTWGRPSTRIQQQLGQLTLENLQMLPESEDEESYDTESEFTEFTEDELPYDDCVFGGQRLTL
The assay can be described thus: Inhibition of cisplatin-induced phosphorylation of IkappaBalpha at Ser32/36 residue in HUVEC cells at 30 uM preincubated with PI3K inhibitor, wortmannin followed by compound addition and further incubated for 1 hr by Western blot analysis. Format: cell-based.

The target in assay [5] is T2, NF-kappa-B inhibitor alpha (Homo sapiens). Put plainly: Inhibition of cisplatin-induced phosphorylation of IkappaBalpha at Ser32/36 residue in HUVEC cells at 30 uM preincubated with eNOS inhibitor, N(G)-nitro-L-arginine methyl ester followed by compound addition and further incubated for 1 hr by Western blot analysis. Format: cell-based.
The target of assay [6] is Transcription factor p65 (Homo sapiens) (UniProt Q04206). The assay can be described thus: Inhibition of cisplatin-induced phosphorylation of p65 subunit at Ser536 residue in HUVEC cells at 30 uM preincubated with PI3K inhibitor, wortmannin followed by compound addition and further incubated for 1 hr by Western blot analysis. It counts as cell-based.
Assay [7] relates to HUVEC. Put plainly: Upregulation of cytosolic p65 level in cisplatin-treated HUVEC cells at 30 uM preincubated with PI3K inhibitor, wortmannin followed by compound addition and further incubated for 1 hr by Western blot analysis. It counts as functional, cell-based. Particulars: Homo sapiens.
In assay [8] the test system is HUVEC. The assay can be described thus: Downregulation of cisplatin-induced ICAM1 protein expression in HUVEC cells at 100 uM incubated for 1 hr by Western blot analysis. It counts as functional, cell-based. Particulars: Homo sapiens.
Assay [9] relates to HUVEC. The assay can be described thus: Inhibition of cisplatin-induced PKCalpha translocation in HUVEC cells assessed as reduction in membrane PKCalpha activity at 30 uM incubated for 15 mins in presence of cisplatin by Western blot analysis. Format: functional, cell-based. The following applies: Homo sapiens.
Assay [10] relates to HUVEC. The assay can be described thus: Inhibition of cisplatin-induced TRPC1 phosphorylation in [32P] orthophosphate labeled HUVEC cells at 30 uM incubated for 15 mins in presence of cisplatin and PI3K inhibitor, wortmannin by Western blot analysis. The following applies: Homo sapiens. It counts as cell-based.
The test system of assay [11] is HUVEC. Put plainly: Improvement in cisplatin-induced endothelial monolayer integrity in HUVEC cells assessed as increase in transendothelial electric resistance at 30 uM preincubated with compound in presence of PI3K inhibitor, wortmannin followed by cisplatin stimulation and measured after 45 mins. It counts as functional, cell-based. The following applies: Homo sapiens.

Assay [12] concerns HUVEC. The assay can be described thus: Improvement in cisplatin-induced endothelial monolayer integrity in HUVEC cells assessed as increase in transendothelial electric resistance at 30 uM preincubated with compound in presence of eNOS inhibitor, N(G)-nitro-L-arginine methyl ester followed by cisplatin stimulation and measured after 45 mins. The following applies: Homo sapiens. Format: functional, cell-based.

For assay [13], the system named is HUVEC. The assay can be described thus: Improvement in cisplatin-induced endothelial monolayer integrity in HUVEC cells assessed as reduction in transmembrane movement of albumin at 30 uM preincubated with compound followed by cisplatin stimulation and measured after 2 hrs. It counts as functional, cell-based. The following applies: Homo sapiens.
The test system of assay [14] is U-937. Put plainly: Inhibition of cisplatin-induced ICAM1 dependent HUVEC cells adhesion to human U-937 cells at 10 to 30 uM preincubated with HUVEC cells for 4.5 hrs in presence of cisplatin and PI3K inhibitor, wortmannin followed by U-937 cell suspension addition and measured after 1 hr by BCECF fluorescent probe based assay. It counts as functional. The following applies: dose 10-30 µM, time 5.5 hrs.

Transcription factor p65 (Homo sapiens), sequence (Q04206 whole entry): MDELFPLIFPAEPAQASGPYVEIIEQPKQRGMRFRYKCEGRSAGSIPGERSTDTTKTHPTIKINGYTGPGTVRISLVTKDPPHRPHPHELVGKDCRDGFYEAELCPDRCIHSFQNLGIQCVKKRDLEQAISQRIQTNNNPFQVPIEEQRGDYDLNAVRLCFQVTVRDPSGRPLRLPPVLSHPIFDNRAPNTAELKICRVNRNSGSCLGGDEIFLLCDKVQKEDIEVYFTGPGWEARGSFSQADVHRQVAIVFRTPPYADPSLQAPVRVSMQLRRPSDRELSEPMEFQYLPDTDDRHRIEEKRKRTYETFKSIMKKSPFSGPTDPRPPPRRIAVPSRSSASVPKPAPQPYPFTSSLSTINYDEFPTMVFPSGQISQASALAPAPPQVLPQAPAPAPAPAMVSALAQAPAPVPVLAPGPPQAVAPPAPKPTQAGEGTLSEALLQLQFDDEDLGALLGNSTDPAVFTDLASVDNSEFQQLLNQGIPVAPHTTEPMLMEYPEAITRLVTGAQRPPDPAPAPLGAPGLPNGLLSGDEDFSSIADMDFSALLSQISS

For `C=C1CC[C@@H]2[C@](C)(CO)[C@H](O)CC[C@@]2(C)[C@@H]1C/C=C1/C(=O)OC[C@H]1O` [ANDROGRAPHOLIDE], the inhibition entry in assay [1] is “Dose-Dependent Effect”. The result in assay [2], in assay [3], in assay [7], in assay [11] and in assay [12] was inactive. The inhibition entry in assay [4], in assay [5], in assay [6], in assay [10] and in assay [14] was “inactive” throughout. Besides, the result in assay [8] and in assay [13] was Active. Besides, the inhibition entry in assay [9] was “Active”.
